Data taken from US8163771B2, “11 β-HSD1 modulators” (Exelixis, Inc., priority 2008, dated 2012).

Molecular target: T1, recombinant human 11 β-HSD1 (Homo sapiens, UniProt P28845)
T1 construct: made in house; host or cells: E. coli
Assay: 11 β-HSD1 SPA Assay (Scintillation Proximity Assay)
Format: biochemical
How it was run: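 E. coli-expressed human enzyme (30-100 nM) with tritiated cortisone 40 nM and NADPH 1 mM in HEPES buffer pH7.4, 2 hours at room temperature. Stopped with protein A SPA beads carrying anti-cortisol antibody and glycyrrhetinic acid; counted after overnight incubation. IC50 from percent inhibition between no-enzyme and no-compound signals.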

T1 sequence (P28845 whole entry): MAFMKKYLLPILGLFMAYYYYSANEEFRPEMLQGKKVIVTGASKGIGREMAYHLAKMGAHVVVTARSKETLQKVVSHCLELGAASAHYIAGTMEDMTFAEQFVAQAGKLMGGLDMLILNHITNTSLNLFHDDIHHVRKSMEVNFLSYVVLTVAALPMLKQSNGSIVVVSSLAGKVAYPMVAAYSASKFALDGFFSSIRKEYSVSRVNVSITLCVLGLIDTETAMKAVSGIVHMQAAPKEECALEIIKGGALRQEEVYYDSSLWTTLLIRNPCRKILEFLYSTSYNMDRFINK

SMILES | IC50 [nM]
C[C@H](NC(=O)c1ccc(N2C3CCC2CC(NC(=O)C(C)(C)Oc2ccc(Cl)cc2)C3)nc1)C(F)(F)F (stereo partly drawn) [Example 420, 6-(3-endo-{[2-(4-chlorophenoxy)-2-methylpropanoyl]amino}-8-azabicyclo[3.2.1]oct-8-yl)-N-[(2S)-1,1,1-trifluoropropan-2-yl]pyridine-3-carboxamide] | < 2000
CC(C)(Oc1ccc(Cl)cc1Cl)C(=O)NC1CC2CCC(C1)N2c1ccc(C(=O)NCC(O)C(F)(F)F)cn1 (stereo not drawn) [Example 421, 6-(3-endo-{[2-(2,4-dichlorophenoxy)-2-methylpropanoyl]amino}-8-azabicyclo[3.2.1]oct-8-yl)-N-(3,3,3-trifluoro-2-hydroxypropyl)pyridine-3-carboxamide] | < 200
CC(C)(Oc1ccc(Cl)cc1S(C)(=O)=O)C(=O)N[C@H]1C[C@H]2CC[C@@H](C1)N2c1ccc(C(=O)NCC(F)F)cn1 [Example 422, 6-[3-endo-({2-[4-chloro-2-(methylsulfonyl)phenoxy]-2-methylpropanoyl}amino)-8-azabicyclo[3.2.1]oct-8-yl]-N-(2,2-difluoroethyl)pyridine-3-carboxamide] | < 200
C[C@H](NC(=O)c1ccc(N2C3CCC2CC(NC(=O)C(C)(C)Oc2ccc(F)cc2C(F)(F)F)C3)nc1)C(F)(F)F (stereo partly drawn) [Example 423, 6-[3-endo-({2-[4-fluoro-2-(trifluoromethyl)phenoxy]-2-methylpropanoyl}amino)-8-azabicyclo[3.2.1]oct-8-yl]-N-[(2S)-1,1,1-trifluoropropan-2-yl]pyridine-3-carboxamide] | < 200
C[C@H](NC(=O)c1ccc(N2C3CCC2CC(NC(=O)C(C)(C)Oc2ccc(Cl)cc2C(F)F)C3)nc1)C(F)(F)F (stereo partly drawn) [Example 424, 6-[3-endo-({2-[4-chloro-2-(difluoromethyl)phenoxy]-2-methylpropanoyl}amino)-8-azabicyclo[3.2.1]oct-8-yl]-N-[(2S)-1,1,1-trifluoropropan-2-yl]pyridine-3-carboxamide] | < 200
C[C@H](NC(=O)c1ccc(N2C3CCC2CC(NC(=O)C(C)(C)Oc2cc(F)c(Cl)cc2Cl)C3)nc1)C(F)(F)F (stereo partly drawn) [Example 425, 6-(3-endo-{[2-(2,4-dichloro-5-fluorophenoxy)-2-methylpropanoyl]amino}-8-azabicyclo[3.2.1]oct-8-yl)-N-[(2S)-1,1,1-trifluoropropan-2-yl]pyridine-3-carboxamide] | < 200
CC(C)(Oc1cc(OC(C)(C)C(=O)N[C@H]2C[C@H]3CC[C@@H](C2)N3c2ccc(C(=O)NCC(F)(F)F)cn2)c(Cl)cc1Cl)C(N)=O [Example 426, 6-{3-endo-[(2-{5-[(1-amino-2-methyl-1-oxopropan-2-yl)oxy]-2,4-dichlorophenoxy}-2-methylpropanoyl)amino]-8-azabicyclo[3.2.1]oct-8-yl}-N-(2,2,2-trifluoroethyl)pyridine-3-carboxamide] | < 200
CC(C)(Oc1ccc(Cl)cc1OC(F)(F)F)C(=O)N[C@H]1C[C@H]2CC[C@@H](C1)N2c1ccc(C(=O)NC2(CO)CC2)cn1 [Example 427, 6-[3-endo-({2-[4-chloro-2-(trifluoromethoxy)phenoxy]-2-methylpropanoyl}amino)-8-azabicyclo[3.2.1]oct-8-yl]-N-[1-(hydroxymethyl)cyclopropyl] pyridine-3-carboxamide] | < 200
CC(C)(Oc1cc(CO)c(Cl)cc1Cl)C(=O)NC1CC2CCC(C1)N2c1ccc(C(=O)NCC(F)F)cn1 (stereo not drawn) [Example 428, 6-[3-endo-({2-[2,4-dichloro-5-(hydroxymethyl)phenoxy]-2-methylpropanoyl}amino)-8-azabicyclo[3.2.1]oct-8-yl]-N-(2,2-difluoroethyl)pyridine-3-carboxamide] | < 200
CC(C)(Oc1cc(C(C)(C)O)c(Cl)cc1Cl)C(=O)N[C@H]1C[C@H]2CC[C@@H](C1)N2c1ccc(C(=O)NCC(F)F)cn1 [Example 429, 6-[3-endo-({2-[2,4-dichloro-5-(2-hydroxypropan-2-yl)phenoxy]-2-methylpropanoyl}amino)-8-azabicyclo[3.2.1]oct-8-yl]-N-(2,2-difluoroethyl)pyridine-3-carboxamide] | < 200
C[C@H](NC(=O)c1ccc(N2C3CCC2CC(NC(=O)C(C)(C)Oc2cc(F)c(F)cc2Cl)C3)nc1)C(F)(F)F (stereo partly drawn) [Example 430, 6-(3-endo-{[2-(2-chloro-4,5-difluorophenoxy)-2-methylpropanoyl]amino}-8-azabicyclo[3.2.1]oct-8-yl)-N-[(2S)-1,1,1-trifluoropropan-2-yl]pyridine-3-carboxamide] | < 200
C[C@H](NC(=O)c1ccc(N2C3CCC2CC(NC(=O)C(C)(C)Oc2ccc(F)cc2F)C3)nc1)C(F)(F)F (stereo partly drawn) [Example 431, 6-(3-endo-{[2-(2,4-difluorophenoxy)-2-methylpropanoyl]amino}-8-azabicyclo[3.2.1]oct-8-yl)-N-[(2S)-1,1,1-trifluoropropan-2-yl]pyridine-3-carboxamide] | < 200
C[C@H](NC(=O)c1ccc(N2C3CCC2CC(NC(=O)C(C)(C)Oc2ccc(Cl)cc2S(C)(=O)=O)C3)nc1)C(F)(F)F (stereo partly drawn) [Example 432, 6-[3-endo-({2-[4-chloro-2-(methylsulfonyl)phenoxy]-2-methylpropanoyl}amino)-8-azabicyclo[3.2.1]oct-8-yl]-N-[(2S)-1,1,1-trifluoropropan-2-yl]pyridine-3-carboxamide] | < 2000
CC(C)(Oc1ccc(Cl)cc1C(F)F)C(=O)N[C@H]1C[C@H]2CC[C@@H](C1)N2c1ccc(C(=O)NCC(F)F)cn1 [Example 433, 6-[3-endo-({2-[4-chloro-2-(difluoromethyl)phenoxy]-2-methylpropanoyl}amino)-8-azabicyclo[3.2.1]oct-8-yl]-N-(2,2-difluoroethyl)pyridine-3-carboxamide] | < 200
C[C@H](NC(=O)c1ccc(N2C3CCC2CC(NC(=O)C(C)(C)Oc2ccc(F)cc2Cl)C3)nc1)C(F)(F)F (stereo partly drawn) [Example 434, 6-(3-endo-{[2-(2-chloro-4-fluorophenoxy)-2-methylpropanoyl]amino}-8-azabicyclo[3.2.1]oct-8-yl)-N-[(2S)-1,1,1-trifluoropropan-2-yl]pyridine-3-carboxamide] | < 200
C[C@H](NC(=O)c1ccc(N2C3CCC2CC(NC(=O)C(C)(C)Oc2ccc(Cl)cc2F)C3)nc1)C(F)(F)F (stereo partly drawn) [Example 435, 6-(3-endo-{[2-(4-chloro-2-fluorophenoxy)-2-methylpropanoyl]amino}-8-azabicyclo[3.2.1]oct-8-yl)-N-[(2S)-1,1,1-trifluoropropan-2-yl]pyridine-3-carboxamide] | < 200
CC(C)(Oc1cc(F)c(Cl)cc1Cl)C(=O)N[C@H]1C[C@H]2CC[C@@H](C1)N2c1ccc(C(=O)NCC(F)F)cn1 [Example 436, 6-(3-endo-{[2-(2,4-dichloro-5-fluorophenoxy)-2-methylpropanoyl]amino}-8-azabicyclo[3.2.1]oct-8-yl)-N-(2,2-difluoroethyl)pyridine-3-carboxamide] | < 200
C[C@H](NC(=O)c1ccc(N2C3CCC2CC(NC(=O)C(C)(C)Oc2ccc(F)c(Cl)c2Cl)C3)nc1)C(F)(F)F (stereo partly drawn) [Example 437, 6-(3-endo-{[2-(2,3-dichloro-4-fluorophenoxy)-2-methylpropanoyl]amino}-8-azabicyclo[3.2.1]oct-8-yl)-N-[(2S)-1,1,1-trifluoropropan-2-yl]pyridine-3-carboxamide] | < 200
